Results taken from US7947839B2, “Heterocyclic-substituted bis-1,8 naphthalimide compounds, antibody drug conjugates, and methods of use” (Genentech, Inc., priority 2004, dated 2011).
Read-outs that look alike come from different tables or passages of the source.

Test system: BT474, H460, HCT116, HUVEC, LNCAP, MCF7, and PC3 cells
Assay: free test compound cell-based assay, 7 tumor cell panel (CellTiter-Glo)
Set-up: species or system Human
Details: NSA = no significant activity; for IC50: Homo sapiens
Experimental: Heterocyclic-substituted bis-1,8-naphthalimide compounds of Formula XV in Table 2 were prepared and tested for in vitro activity against a panel of tumor cells (Example 110).
Alternatively, the efficacy of compounds of the invention can be assayed by the following free test compound cell-based assay protocol
• 1. Prepare each cell line (BT474, H460, HCT116, HUVEC, LNCaP, MCF7, and PC3) at 1 k cells/well in separate plates with Complete Media (CM): RPM1 […]+10% FBS (Fetal Bovine Serum)+1% of 200 mM L-Glutamine. Plate number depends on test compounds provided by submitter. • 2. Detach prospective cell lines by first removing the media. When the flask is empty of media, begin rinsing out individual flasks with 5 mL sterile PBS. Move the PBS around within the flask to rinse well. Decant the PBS and add aseptically 5 mL of Accutase/flask. Make sure the Accutase covers the entire flask. • 3. Immediately place the flask(s) into a 37° C. incubator to allow cells to detach for 5-7 minutes. • 4. Post 5-7 minutes, remove flask(s) from the incubator and begin harvesting the detached cells using a serological pipette. Pipette up and down along the back of the flask to facilitate cell detachment. Pipette the Accutase containing cells into a sterile 50 mL conical tube/cell line. Pipette 10 mL of sterile PBS and re-rinse the flask to obtain remaining cells and dispense it into the same 50 mL conical tube/cell line for a total volume of 15 mL/tube/cell line. • 5. After each cell line has been allocated to a designated tube, take out 100 μL/tube/cell line for the cell counts. While the cell counts are being calculated, centrifuge the 50 mL tubes at 1000 rpm at 4° C. with a high brake. • 6. When centrifugation and cell calculations are completed, decant excess liquid and resuspend the cell pellet(s) using 5 mL CM, depending on calculations. • 7. Using a 5 mL syringe and an 18 G ½ needle, strain the cells to help prevent aggregation. Further strain by using a […] cell filter to block out any huge aggregates not broken down by the needle. • 8. After cell straining and filtering, take out calculated amount for a 1 k cells/well into fresh media. Take the media containing cells and load 100 μL/well into a bottom tissue culture treated flat 96 well plate. • 9. Immediately place in a 37° C. incubator overnight to allow the cells to adhere to the tissue culture treated 96 well plates. Day 2: • 1. Test compounds are submitted at 10 mM in sterile DMSO. • 2. DMSO as negative control and a positive standard are used in every assay! • 3. Prepare a 1:1000 fold dilution for each test compound, control, and standard for a 10e-5 M starting point. Do a 1:100 first, then a 1:10. • 4. Prior to diluting samples, vortex the samples and the controls for a homogeneous mixture. Note any sample that will not solubilize and/or stay in suspension. • 5. When the samples are at 10e-5 M, vortex each tube well and spin down fluid to ensure sample remains in tacked. Manual Dilution Protocol: • 1. After the tubes are at a final 1:1000 (10e-5 M) dilution, load the first column of the microtube box with the prospective sample. Load DMSO and positive control in singlets. The test compounds are loaded in duplicates. Load the remaining empty microtube racks with 540 μL of media to prepare for a serial dilution of 1:10. • 2. Agitate and transfer 60 μL from column 1 into successive wells containing 540 μL of media (1:10). Therefore, transfer 60 μL of column 1 into 540 μL of column 2. Resuspend column 2 about 10-15×'s then transfer 60 μL from column 2 to column 3 etc. Automated Dilution Protocol: • 1. Once the tubes are at a final 1:1000 (10e-5 M), load the first column of the microtube box with the prospective sample. Load DMSO and positive control in singlets. The compounds are loaded in duplicates. Load the remaining empty microtube racks manually with 540 μL of media to prepare for the automated serial dilution of 1:10 (see above diagram). • 2. […]

[1] = average linear IC50 across the 7 tumor cell panel, read-out: Avg.
[2] = average log IC50 across the 7 tumor cell panel, read-out: Avg. (log IC50) (converted)
[3] = average linear IC50 across the 7 tumor cell panel
[4] = average log IC50 across the 7 tumor cell panel

| SMILES | IC50 [1] [nM] | IC50 [2] [nM] | Avg. (nM) [3] | Avg. (log IC50) [4] |
| --- | --- | --- | --- | --- |
| O=C1c2cccc3c(N4CCOCC4)ccc(c23)C(=O)N1CCNCCCNCCN1C(=O)c2cccc3c(N4CCOCC4)ccc(c23)C1=O [Compound 20, N, N′-(bis-aminoethyl-1,3-propanediamine)-bis-4-morpholino-1,8 naphthalimide] | 2.57 | 2.57 | – | – |
| CN1CCN(c2ccc3c4c(cccc24)C(=O)N(CCNCCCNCCN2C(=O)c4cccc5c(N6CCN(C)CC6)ccc(c45)C2=O)C3=O)CC1 [Compound 24a] | 0.71 | 0.708 | – | – |
| O=C1c2cccc3c(-n4ccnc4)ccc(c23)C(=O)N1CCNCCCNCCN1C(=O)c2cccc3c(-n4ccnc4)ccc(c23)C1=O [Compound 24b, N, N′-(bis-aminoethyl-1,3-propanediamine)-bis-(4-N-imidazolyl)-1,8 naphthalimide] | 0.41 | 0.407 | – | – |
| CCN(CCCNCCN1C(=O)c2cccc3c(N4CCOCC4)ccc(c23)C1=O)CCN1C(=O)c2cccc3c(N4CCOCC4)ccc(c23)C1=O [Compound 30a, N, N′-(N-ethyl, bis-aminoethyl-1,3-propanediamine)-bis-4-morpholino-1,8 naphthalimide] | 3.98 | 3.98 | – | – |
| O=C(CN1C(=O)c2cccc3c(N4CCOCC4)ccc(c23)C1=O)NCCCNC(=O)CN1C(=O)c2cccc3c(N4CCOCC4)ccc(c23)C1=O [Compound 34, N, N′-(bis-2-acetamido-1,3-propanediamine)-bis-4-morpholino-1,8 naphtbalimide] | 2190 | 2190 | – | – |
| O=C(CC(=O)NCCN1C(=O)c2cccc3c(N4CCOCC4)ccc(c23)C1=O)NCCN1C(=O)c2cccc3c(N4CCOCC4)ccc(c23)C1=O [Compound 35, N, N′-(bis-ethyl, malondiamide)-bis-4-morpholino-1,8 naphthalimide] | – | – | NSA | NSA |
| O=C(CN1C(=O)c2cccc3c(N4CCOCC4)ccc(c23)C1=O)NCCNCCCN1C(=O)c2cccc3c(N4CCOCC4)ccc(c23)C1=O [Compound 38] | 1820 | 1820 | – | – |
| O=C(CN1C(=O)c2cccc3c(N4CCOCC4)ccc(c23)C1=O)NCCCNCCN1C(=O)c2cccc3c(N4CCOCC4)ccc(c23)C1=O [Compound 41] | 3.39 | 3.39 | – | – |
| O=C1c2cccc3c(N4CCOCC4)ccc(c23)C(=O)N1CCCCNCCCN1C(=O)c2cccc3c(N4CCOCC4)ccc(c23)C1=O [Compound 45, N, N′-(4-aza-octanyl)-bis-4-morpholino-1,8 naphthalimide] | 1510 | 1510 | – | – |
| O=C1c2cccc3c(N4CCOCC4)ccc(c23)C(=O)N1CCNCCNCCN1C(=O)c2cccc3c(N4CCOCC4)ccc(c23)C1=O [Compound 54a, N, N′-(bis-aminoethyl-1,2-ethanediamine)-bis-4-morpholino-1,8 naphthalimide] | 22.9 | 22.9 | – | – |
| O=C1c2cccc3c(N4CCOCC4)ccc(c23)C(=O)N1CCOCCOCCN1C(=O)c2cccc3c(N4CCOCC4)ccc(c23)C1=O [Compound 54b, N, N′-(3,6-dioxaoctanylene)-bis-4-morpholino-1,8 naphthalimide] | – | – | NSA | NSA |
| CC(=O)N(CCCNCCN1C(=O)c2cccc3c(N4CCOCC4)ccc(c23)C1=O)CCN1C(=O)c2cccc3c(N4CCOCC4)ccc(c23)C1=O [Compound 54c, N, N′-(N-acetyl, bis-aminoethyl-1,3-propanediamine)-bis-4-morpholino-1,8 naphthalimide] | 191 | 191 | – | – |
| NCC(=O)N(CCCNCCN1C(=O)c2cccc3c(N4CCOCC4)ccc(c23)C1=O)CCN1C(=O)c2cccc3c(N4CCOCC4)ccc(c23)C1=O [Compound 54d, N, N′-(N-glycyl, bis-aminoethyl-1,3-propanediamine)-bis-4-morpholino-1,8 naphthalimide] | 324 | 324 | – | – |
| C[C@H](N)C(=O)N(CCCNCCN1C(=O)c2cccc3c(N4CCOCC4)ccc(c23)C1=O)CCN1C(=O)c2cccc3c(N4CCOCC4)ccc(c23)C1=O [Compound 54e, N, N′-(N-alanyl, bis-aminoethyl-1,3-propanediamine)-bis-4-morpholino-1,8 naphthalimide] | 126 | 126 | – | – |
| CCOC(=O)N(CCCNCCN1C(=O)c2cccc3c(N4CCOCC4)ccc(c23)C1=O)CCN1C(=O)c2cccc3c(N4CCOCC4)ccc(c23)C1=O [Compound 54f, N, N′-(N-carboethoxy, bis-aminoethyl-1,3-propanediamine)-bis-4-morpholino-1,8 naphthalimide] | 692 | 692 | – | – |
| COCCOCCOCC(=O)N(CCCNCCN1C(=O)c2cccc3c(N4CCOCC4)ccc(c23)C1=O)CCN1C(=O)c2cccc3c(N4CCOCC4)ccc(c23)C1=O [Compound 54g, N, N′-(N-methylethoxyethoxyacetyloxy, bis-aminoethyl-1,3-propanediamine)-bis-4-morpholino-1,8 naphthalimide] | 692 | 692 | – | – |
| O=C1c2cccc3c(N4CCOCC4)ccc(c23)C(=O)N1CCNCCCN(CCN1C(=O)c2cccc3c(N4CCOCC4)ccc(c23)C1=O)C(=O)C(F)(F)F [Compound 54h, N, N′-(N-trifluoromethylacetyl, bis-aminoethyl-1,3-propanediamine)-bis-4-morpholino-1,8 naphthalimide] | 309 | 309 | – | – |
| O=C1c2cccc3c(N4CCOCC4)ccc(c23)C(=O)N1CCNCCCN(CCCS)CCN1C(=O)c2cccc3c(N4CCOCC4)ccc(c23)C1=O [Compound 55a, N, N′-(N-3-mercaptopropyl, bis-aminoethyl-1,3-propanediamine)-bis-4-morpholino-1,8 naphthalimide] | 57.5 | 57.5 | – | – |
| O=C(CCS)N(CCCNCCN1C(=O)c2cccc3c(N4CCOCC4)ccc(c23)C1=O)CCN1C(=O)c2cccc3c(N4CCOCC4)ccc(c23)C1=O [Compound 55c, N, N′-(N-3-mercaptopropionyl, bis-aminoethyl-1,3-propanediamine)-bis-4-morpholino-1,8 naphthalimide] | 3720 | 3720 | – | – |
| O=C1c2cccc3cc([N+](=O)[O-])cc(c23)C(=O)N1CCNCCCNCCN1C(=O)c2cccc3c(N4CCOCC4)ccc(c23)C1=O [Compound 56a, N, N′-(bis-aminoethyl-1,3-propanediamine)-3-nitro, 4-morpholino-1,8 naphthalimide] | 1.62 | 1.62 | – | – |
| Nc1ccc2c3c(cccc13)C(=O)N(CCNCCCNCCN1C(=O)c3cccc4c(N5CCOCC5)ccc(c34)C1=O)C2=O [Compound 56b, N, N′-(bis-aminoethyl-1,3-propanediamine)-4-amino, 4-morpholino-1,8 naphthalimide] | 18.6 | 18.6 | – | – |
| O=C1c2cccc3c(N4CCOCC4)ccc(c23)C(=O)N1CCN1C=[N+](CCN2C(=O)c3cccc4c(N5CCOCC5)ccc(c34)C2=O)CCC1 [Compound 57, N, N′-(bis-aminoethyl-1,4,5,6-tetrahydropyrimidinium)-bis-4-morpholino-1,8 naphthalimide] | 468 | 468 | – | – |
| O=C1c2cccc3c(N4CCNCC4)ccc(c23)C(=O)N1CCNCCCNCCN1C(=O)c2cccc3c(N4CCNCC4)ccc(c23)C1=O [Compound 58a, N, N′-(bis-aminoethyl-1,3-propanediamine)-bis-4-piperazino-1,8 naphthalimide] | 1.7 | 1.7 | – | – |
